Assay results published in patent US20070173545A1, “Activation of hypoxia-inducible gene expression” (priority 2003, published 2007).
“Also recorded” adds a separate entry of the source.

Experiments:
HPH = HPH activity of extracts of pretreated U251 cells (^35S-pVHL pulldown); type: cell-based, human; settings: four hours, 1 mM pyruvate or oxaloacetate, DMOG
Procedure: FIG. 17: Inactivation of cellular HPH activity by pyruvate and oxaloacetate U251 cells were cultured for four hours in glucose-free Krebs buffer with or without the indicated additions. Whole cell extracts were then prepared and used as a source of HPH enzyme to hydroxylate a biotinylated peptide from the HIF-1a ODD containing proline 564. Proline hydroxylation was measured by the ability of streptavidin coated beads to pulldown the hydroxyproline ^35S-pVHL complex as in FIGS. 12-14.
To directly determine whether HPH activity had been inactivated by pyruvate or oxaloacetate treatment, we evaluated the ability of U251 cell extracts from pyruvate or oxaloacetate treated cells to hydroxylate HIF-1a peptide using the ^35S-pVHL pulldown assay (Ivan et al. (2002) Proc. Natl. Acad. Sci. USA 99, 13459-13466). In these experiments, ascorbate was omitted from the in vitro portion of the assay.

HIF-1a = HIF-1a induction in digitonin-permeabilized human glioma cells (U87, U251); type: cell-based; settings: 1 mM doses
Procedure: We determined the ability of each shown structure to induce HIF by exposing digitonin-permeabilized human glioma cells (U87, U251) to 1 mM doses.
At four hours, ATP levels were measured in cell extracts using the luciferase method.
In order to investigate the mechanism of action of the 2-oxoacid HIF inducers that we identified we first determined their effects upon cellular ATP levels. […] As shown in the scheme in FIG. 1, cellular levels of HIF-1a can be elevated by blockade of proteasomal activity, ubiquitinylation, or prolyl hydroxylation. Inhibition of the proteasome by lactacystin beta-lactone (Lbl) leads to accumulation of HIF-1a in its polyubiquitinylated form which generally appears as a smear of higher molecular weight species on western blots. […] Cellular accumulation and nuclear translocation of HIF-1a can also be studied via immunohistochemistry. For this purpose we utilized U251 cells which are more adherent to cell culture dishes that the U87 cells.

[1] = tested on: HPH homologues 1, 2 and 3; assay: ^35S-pVHL pulldown assay, in vitro translated HPH homologues; type: biochemical, human; settings: 2-OG analogs at 1 mM, 5 mM or 25 mM [2-OG], ascorbate at 2 mM
Procedure: After incubating the peptide with the HPHs and the indicated reagents, ^35S-pVHL was added followed by addition of streptavidin-coated beads to pull down the HIF-1a peptide. The reaction was pelleted, the pellet was washed and then solubilized for SDS-PAGE analysis followed by autoradiography to reveal the captured ^35S-pVHL. Using in vitro translated HPH homologues we first optimized assay conditions with respect to the required HPH substrates and co-factors. […] Conditions for other reagents were: ascorbate=2 mM, iron sulfate=250 μM, DTT=1 mM. […] Conditions: ascorbate=2 mM, 2-OG=2 mM, DTT=1 mM. […] Conditions: 2-OG=125 μM, iron sulfate=250 μM, DTT=1 mM. […] In all assays 5 μl (about 20 ng) of enzyme and 1 μg of peptide was utilized.
FIG. 13: In vitro effects of 2-OG analogs on recombinant HPH activity HPH activity was assessed via the ^35S-pVHL pulldown assay as in FIG. 11. Activity of in vitro translated HPH homologues was determined in the absence and presence of the 2-OG analogs N-oxalylglycine (NOG), pyruvate or OAA at 1 mM.
To directly evaluate the action of pyruvate and oxaloacetate on HPH activity (step D in FIG. 2) we utilized the commonly used ^35S-pVHL pulldown assay. This assay monitors the ability of HPH homologues to confer ^35S-pVHL binding activity onto a biotinylated 19mer peptide containing the key proline564 residue of the HIF-1a ODD (see FIG. 1). […]

HIF-1a protein = assay: HIF-1a levels in nuclear extracts of U87 glioma cells (western blot); type: cell-based, human; settings: 150 μm DFO, four hours
Procedure: (A) U87 glioma cells cultured in DMEM were switched to Krebs buffer containing 5.5 mM glucose (Glc) and then evaluated for nuclear HIF-1a levels at various times by western blot analysis. (B) HIF-1a levels were measured after four hours incubation of cells in Krebs buffer containing the indicated glucose concentrations or with 5.5 mM 2-deoxyglucose (2-DG) substituted for glucose. (C) HIF-1a levels were measured in U87 cells cultured in glucose-free Krebs buffer following treatment for four hours under normoxia (21% oxygen) hypoxia (1% oxygen) or with 150 μm desferrioxamine (DFO). (D) Induction of HIF-1a by glucose was monitored in the presence of 50 μM IAA or 1 mM 4-CIN. […] Results are representative of experiments repeated at least three times.
Similar measurements were made in the presence of 50 μM IAA or in glucose-free Krebs buffer. […] HIF-1a induction by four hours treatment with 5.5 mM glucose-containing Krebs (Glc) is shown for comparison. (E) Digitonin-permeabilized cells were treated with 1% oxygen or Krebs containing either 5.5 mM glucose or 2 mM pyruvate in the presence of 50 μM IAA. Permeabilized cell in lanes 5 and 6 were treated with 3 mM NAD or NADH respectively in glucose free Krebs. Nuclear HIF-1a levels were determined four hours later. (F) HIF-1a levels were determined after four hour treatment of cells in glucose-free Krebs (lane 1) or 5.5 mM Glucose containing Krebs. […] (H) To measure the decay of the HIF-1a protein, HIF-1a measurements were made after four hour treatment under hypoxia (lane 1), four hours hypoxia followed by 30 minutes normoxia (lane 2), four hour treatment with 150 μM DFO (lane 3), four hours DFO followed by addition of 100 μM CHX for one hour (lane 4), four hours treatment with 2 mM pyruvate (lane 5), and four hours pyruvate followed by addition of 100 μM CHX for one hour (lane 6). (H) HIF-1a levels were determined in digitonin-permeabilized cells treated for four hour with Krebs containing no glucose (lane 1), 1 mM pyruvate (lane 2), or 1 mM pyruvate and 10 mM 2-OG (lane 3).
In order to resolve the biochemical mechanisms underlying this phenomenon, we studied the human glioma cell line U-87 under conditions of carefully defined culture media. Thus we studied these cells while culturing them in freshly prepared Krebs buffer, all components of which were known to us.
To precisely define the glucose metabolite mediating HIF-1a accumulation, we utilized pharmacological inhibitors of glycolysis as well as the direct addition of different glucose metabolites to cells (FIG. 4).

HRE containing promoter [2] = assay: HRE-GFP reporter in U373 cells; type: cell-based, human; settings: eight hours, glucose-free medium
Source text: (§1) FIG. 18: 2-oxoacids activate HIF-mediated gene expression in human cell lines Effective gene expression by HIF not only involves HIF protein stabilization via inhibition of HPH enzymes but also HIF-1 binding to DNA, inhibition of FIH-1 activity, and gene transcription (see FIG. 1). (A) Glioma cells used in our studies express FIH-1 as assessed using RT-PCR. […] Expression of beta-actin, a housekeeping gene not under HIF regulation is not affected by pyruvate. […] (E) U373 cell were transfected with a green fluorescent protein (GFP) construct under the control of an HIF regulatory element (HRE) containing promoter and then cultured for eight hours in glucose-free medium under the indicated conditions. […] U251 cells stably transfected with a luciferase construct under the control of an HRE containing promoter were cultured for six hours in glucose free Krebs with the following conditions: 1=control, 2=1% oxygen, 3=pyruvate (2 mM), 4=OAA (2 mM), 5=Ethylpyruvate (2 mM), 6=Glucose (5.5 mM), 7=DMOG (0.5 mM), 8=Lactacystin-beta lactone ([…]).
Effective gene expression by HIF not only involves HIF protein stabilization via inhibition of HPH enzymes but also HIF-1 binding to DNA, inhibition of FIH-1 activity, and gene transcription. The human gliomas that we utilized for most of our studies all express mRNA for FIH-1 (FIG. 18A). […]

HRE containing promoter [3] = assay: HRE-luciferase reporter in U251 cells; type: cell-based, human; settings: six hours, glucose free Krebs, pyruvate, OAA, Ethylpyruvate 2 mM, Lactacystin-beta lactone 20 mM
Source text: as §1
FIG. 19: HIF-mediated gene expression is selectively reversed by ascorbate U251 cells stably expressing HRE-luciferase were cultured in glucose-free Krebs buffer with the indicated conditions for eight hours. Pyruvate, oxaloacetate, and DMOG were added at 1 mM each.
Effective gene expression by HIF not only involves HIF protein stabilization via inhibition of HPH enzymes but also HIF-1 binding to DNA, inhibition of FIH-1 activity, and gene transcription. The human gliomas that we utilized for most of our studies all express mRNA for FIH-1 (FIG. 18A). […] To directly assess activation of gene containing an HRE regulated promoter by the glucose metabolites pyruvate and oxaloacetate, we used U373 glioma cells transfected with an HRE-green fluorescent (HRE-GFP) construct that responds to HIF activation.

| SMILES | HPH activity of extracts of pretreated cells (HPH) | Ability to induce HIF (HIF-1a accumulation), structure-activity (HIF-1a) | Inhibition of 2-OG catalyzed HPH activity [1] | HIF-1a levels in glucose-free Krebs buffer (HIF-1a protein) | HRE-GFP expression (HRE containing promoter [2]) | HRE-luciferase expression (HRE containing promoter [3]) |
| --- | --- | --- | --- | --- | --- | --- |
| COC(=O)CNC(=O)C(=O)OC [DMOG, dimethyloxalylglycine] | No such pretreatment-induced inhibition; also recorded: no such loss of HPH activity | consistently enhanced HIF-1a levels |  |  |  |  |
| O=C(O)CNC(=O)C(=O)O [NOG, N-oxalylglycine] |  | consistently enhanced HIF-1a levels | inhibition by NOG is clearly evident |  |  |  |
| CC(=O)N(O)CCCCCNC(=O)CCC(=O)N(O)CCCCCNC(=O)CCC(=O)N(O)CCCCCN [DFO, desferrioxamine] |  |  |  | still upregulate HIF-1a protein in the absence of glucose | activated HRE-GFP expression; also recorded: GFP (green fluorescence) was expressed | enhanced HRE-luciferase expression |
